From article PMC4347201, “The jasmonate-responsive GTR1 transporter is required for gibberellin-mediated stamen development in Arabidopsis” (Nature Communications, 2015)

T1: GTR2/NPF2.11 (Arabidopsis thaliana, UniProt Q9LV10)
T1 construct: forward primer starts ATGGAGAGAAAGCCTCTTG
T1 sequence (Q9LV10 1-616): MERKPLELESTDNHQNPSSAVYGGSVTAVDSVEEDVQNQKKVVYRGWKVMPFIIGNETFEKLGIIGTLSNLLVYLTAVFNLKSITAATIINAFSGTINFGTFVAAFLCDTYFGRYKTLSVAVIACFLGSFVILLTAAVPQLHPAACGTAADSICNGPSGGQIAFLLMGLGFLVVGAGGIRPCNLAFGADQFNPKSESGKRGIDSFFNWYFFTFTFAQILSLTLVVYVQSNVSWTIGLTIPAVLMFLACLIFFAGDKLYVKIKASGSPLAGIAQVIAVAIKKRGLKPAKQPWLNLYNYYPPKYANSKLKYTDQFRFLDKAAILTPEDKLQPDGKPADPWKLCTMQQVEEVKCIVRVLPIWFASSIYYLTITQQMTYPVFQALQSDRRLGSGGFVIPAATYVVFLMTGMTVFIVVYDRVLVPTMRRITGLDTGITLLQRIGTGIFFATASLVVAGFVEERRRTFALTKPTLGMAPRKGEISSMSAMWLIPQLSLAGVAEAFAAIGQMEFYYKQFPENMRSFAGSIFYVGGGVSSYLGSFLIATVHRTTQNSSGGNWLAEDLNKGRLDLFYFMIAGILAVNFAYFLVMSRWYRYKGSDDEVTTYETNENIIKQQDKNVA


Columns and labels:
[1] = target: T1, GTR2/NPF2.11; test: uptake into Xenopus oocytes, UPLC/TOFMS; format: cell-based; details: pH 5, 24 h uptake, kulori-based buffer
[2] = substrate: C=C1C[C@]23C[C@@]1(O)CC[C@H]2[C@@]12C=C[C@H](O)[C@@](C)(C(=O)O1)[C@H]2[C@@H]3C(=O)O; test: uptake into Xenopus oocytes, UPLC/TOFMS; format: cell-based, Arabidopsis thaliana; details: pH 5.0, 17 °C, 24 h uptake, kulori-based buffer, 1-2,000 μM GA3

Row | Molecule | uptake into Xenopus oocytes, UPLC/TOFMS [1] | Km [2] [µM]
1 | C=C1C[C@]23C[C@@]1(O)CC[C@H]2[C@@]12C=C[C@H](O)[C@@](C)(C(=O)O1)[C@H]2[C@@H]3C(=O)O [GA3] | GTR2, a close homologue of GTR1, also transported GA3 into oocytes | 
2 | GTR1/NPF2.10 (Arabidopsis thaliana) (protein) MKSRVILNHRDRRDKNHNNNNTNHYTQVDTMERKPLEVEPSTTTTNTDVVDSFEEEQRKIVYRGWKVMPFIIGNETFEKLGIIGTLSNLLVYLTSVFNLKSYTAATIINAFSGTINFGTFIAAFLCDTYFGRYKTLSVAVIACFLGSFVILLTAAIPSLHPVACGNKISCEGPSVGQILFLLMGLGFLVVGAGGIRPCNLAFGADQFNPKSESGKKGINSFFNWYFFTFTFAQIISLTAVVYIQSNVSWTIGLIIPVALMFLACVIFFAGDRLYVKVKASGSPLAGIARVIAAAIKKRGLKPVKQPWVNLYNHIPSNYANTTLKYTDQFRFLDKAAIMTPEEKLNSDGTASDPWKLCTLQQVEEVKCIVRVIPIWFASTIYYLAITIQMTYPVFQALQSDRRLGSGGFRIPAATYVVFLMTGMTVFIIFYDRVLVPSLRRVTGLETGISLLQRIGAGFTFAIMSLLVSGFIEERRRNFALTKPTLGMAPRTGEISSMSALWLIPQLTLAGIAEAFAAIGQMEFYYKQFPENMKSFAGSIFYVGAGVSSYLASFLISTVHRTTAHSPSGNWLAEDLNKAKLDYFYFMLTGLMVVNMAYFLLMARWYRYKGGNDEDITEIETNEEETKQQQLQDKNSV |  | 301.25 ± 225.46
